What was measured:
Assay type in all cases: in vivo
Eimeria necatrix = experiment: Inhibitory effects of the derivatives on Eimeria necatrix of chicken; settings: for anticoccidial activity in view of survival rate, bloody stool score and relative weight gain: 60 ppm, E. necatrix; for responders at 60 ppm, 60 µg/mL / response vs control in vivo at 60 ppm, 60 µg/mL: Eimeria necatrix, 168 h; for responders at 60 ppm, 60 µg/mL: read-out: Survival rate (%); for response vs control in vivo at 60 ppm, 60 µg/mL: feed or water, read-out: Relative weight gain (%); for response vs control in vivo at 60 ppm, 60 µg/mL / Score (bloody stool score): broilers, 60 ppm in feed, 100,000 E. necatrix oocysts; for Score (bloody stool score): 5 days after inoculation
Protocol: (§1) Bloody stool score: 0, no bloody stool was observed; 1, bloody stool below 25%; 2, 25 to 50% of bloody stool; 3, 50 to 75% of bloody stool; and 4, bloody stool over 75%.
(§2) Relative weight gain (%): The broilers were weighed at the beginning and the end of the trial to calculate the average weight gain and relative weigh gain. Relative weight gain=(average weight gain of each group/average weight gain of group 1)×100%.
(§3) Deaths of the broilers: Necropsy was performed and the amount of dead broilers in each group was recorded to calculate the survival rate. Survival rate=(total amount of the broilers in each group−amount of deaths caused by coccidial infection)/total amount of the broilers in each group×100%.
(§4) One-day-old yellow-feather fast-growing broilers were raised in a coccidia-free environment, and divided into groups for trial at the age of 18 days when no coccidian oocysts were detected by microscopy in their faeceas. Weak or overweight broilers were removed, and healthy broilers were divided into 10 groups with 50 broilers in each group and weight difference between each two broilers was below 20 g. Groups 1 and 2 were respectively a control group that the broilers were neither infected nor treated, and a control group that the broilers were infected but not treated. Groups 3 to 10 were respectively administrated with different derivatives. The broilers were given ad libitum access to feed and water when the feed was added with different medicines according to Table 4 at the day the broilers were divided. 24 Hours after the trial began, 100,000 sporulated Eimeria necatrix oocysts were inoculated via an oral gavage into the crop of every broiler in each group except group 1. Bloody stool score was measured 5 days after the inoculation and the trial was ended 7 days after the inoculation. Relative weight gain (%), survival rate (%) and the bloody stool score were evaluated (according to embodiment 2).

Eimeria acervulina = experiment: Inhibitory effects of the derivatives on Eimeria acervulina of chicken; settings: for anticoccidial activity in view of survival rate, relative weight gain and feed conversion ratio: 60 ppm, E. acervulina; for responders at 60 ppm, 60 µg/mL / response vs control in vivo at 60 ppm, 60 µg/mL: Eimeria acervulina, 168 h; for responders at 60 ppm, 60 µg/mL / response vs control in vivo at 60 ppm, 60 µg/mL / Feed conversion ratio: broilers, 60 ppm in feed, 400,000 E. acervulina oocysts; for responders at 60 ppm, 60 µg/mL: 7 days after inoculation, read-out: Survival rate (%); for response vs control in vivo at 60 ppm, 60 µg/mL: feed or water, read-out: Relative weight gain (%)
Protocol: as §2, §3
as §4, with “Table 3” for “Table 4”, “began, 400,000” for “began, 100,000”, “Eimeria acervulina” for “Eimeria necatrix”, “1. The” for “1. Bloody stool score was measured 5 days after the inoculation and the”, “and feed conversion ratio” for “and the bloody stool score”, “were evaluated.” for “were evaluated (according to embodiment 2).”

Eimeria tenella [1] = experiment: Inhibitory effects of the derivatives of different dosages on Eimeria tenella of chicken; parameters: key to Score (bloody stool score): 0 = no bloody stool to 4 = bloody stool over 75%; settings: broilers, E. tenella; for Score (bloody stool score): 5 days after inoculation
Protocol: as §1, §2, §3
(§5) One-day-old yellow-feather fast-growing broilers were raised in a coccidia-free environment, and divided into groups for trial at the age of 18 days when no coccidian oocysts were detected by microscopy in their faeceas. Weak or overweight broilers were removed, and healthy broilers were divided into 16 groups with 50 broilers in each group and weight difference between each two broilers was below 20 g. Groups 1 and 2 were respectively a control group that the broilers were neither infected nor treated, and a control group that the broilers were infected but not treated. Groups 3 to 16 were respectively administrated with different kinds or different dosages of derivatives. The broilers were given ad libitum access to feed and water when the feed was added with different medicines according to Table 2 at the day the broilers were divided. 24 Hours after the trial began, 250,000 sporulated Eimeria tenella oocysts were inoculated via an oral gavage into the crop of every broiler in each group except group 1. Bloody stool score was measured 5 days after the inoculation and the trial was ended 7 days after the inoculation. Relative weight gain (%), survival rate (%) and the bloody stool score were evaluated (according to embodiment 2).

Eimeria tenella [2] = experiment: Inhibitory effects of the derivatives on Eimeria tenella of chicken (60 ppm in feed); settings: for anticoccidial activity in view of survival rate, bloody stool score and relative weight gain: 60 ppm, E. tenella; for responders at 60 ppm, 60 µg/mL / response vs control in vivo at 60 ppm, 60 µg/mL: Eimeria tenella, 168 h; for responders at 60 ppm, 60 µg/mL / response vs control in vivo at 60 ppm, 60 µg/mL / Score (bloody stool score): broilers, 60 ppm in feed, 250,000 E. tenella oocysts; for responders at 60 ppm, 60 µg/mL: 7 days after inoculation, read-out: Survival rate (%); for response vs control in vivo at 60 ppm, 60 µg/mL: relative to group 1 (not infected, not treated), read-out: Relative weight gain (%); for Score (bloody stool score): 5 days after inoculation
From the text: as §5, with “into 30” for “into 16”, “to 30” for “to 16”, “different” for “different kinds or different dosages of”, “Table 1” for “Table 2”, “were evaluated.” for “were evaluated (according to embodiment 2).”
as §1, §2, §3

NC(=O)c1ncn(Cc2c(F)cccc2Cl)c1C(N)=O [IST15031, 1-(2-chloro-6-fluorobenzyl)-1H-imidazole-4,5-dicarboxamide]
anticoccidial activity in view of survival rate, bloody stool score and relative weight gain (Eimeria necatrix): highest anticoccidial activities | responders at 60 ppm, 60 µg/mL (Eimeria necatrix): 100% | response vs control in vivo at 60 ppm, 60 µg/mL (Eimeria necatrix): 92.5% | Score (bloody stool score) (Eimeria necatrix): 1 (bloody stool below 25%) | anticoccidial activity in view of survival rate, relative weight gain and feed conversion ratio (Eimeria acervulina): highest anticoccidial activities | responders at 60 ppm, 60 µg/mL (Eimeria acervulina): 100% | response vs control in vivo at 60 ppm, 60 µg/mL (Eimeria acervulina): 94.8% | Feed conversion ratio (Eimeria acervulina): 2.179 | Relative weight gain (%) (Eimeria tenella [1]; 5 ppm in feed): 67.8% | Survival rate (%) (Eimeria tenella [1]; 5 ppm in feed): 76% | Score (bloody stool score) (Eimeria tenella [1]; 5 ppm in feed): 4 (bloody stool over 75%) | Relative weight gain (%) (Eimeria tenella [1]; 10 ppm in feed): 72.3% | Survival rate (%) (Eimeria tenella [1]; 10 ppm in feed): 88% | Score (bloody stool score) (Eimeria tenella [1]; 10 ppm in feed): 4 (bloody stool over 75%) | Relative weight gain (%) (Eimeria tenella [1]; 20 ppm in feed): 79.8% | Survival rate (%) (Eimeria tenella [1]; 20 ppm in feed): 100% | Score (bloody stool score) (Eimeria tenella [1]; 20 ppm in feed): 2 (25 to 50% of bloody stool) | Relative weight gain (%) (Eimeria tenella [1]; 50 ppm in feed): 90.5% | Survival rate (%) (Eimeria tenella [1]; 50 ppm in feed): 100% | Score (bloody stool score) (Eimeria tenella [1]; 50 ppm in feed): 1 (bloody stool below 25%) | Relative weight gain (%) (Eimeria tenella [1]; 100 ppm in feed): 98.9% | Survival rate (%) (Eimeria tenella [1]; 100 ppm in feed): 100% | Score (bloody stool score) (Eimeria tenella [1]; 100 ppm in feed): 0 | Relative weight gain (%) (Eimeria tenella [1]; 200 ppm in feed): 102.5% | Survival rate (%) (Eimeria tenella [1]; 200 ppm in feed): 100% | Score (bloody stool score) (Eimeria tenella [1]; 200 ppm in feed): 0 | Relative weight gain (%) (Eimeria tenella [1]; 500 ppm in feed): 100.4% | Survival rate (%) (Eimeria tenella [1]; 500 ppm in feed): 100% | Score (bloody stool score) (Eimeria tenella [1]; 500 ppm in feed): 0 | anticoccidial activity in view of survival rate, bloody stool score and relative weight gain (Eimeria tenella [2]): highest anticoccidial activities | responders at 60 ppm, 60 µg/mL (Eimeria tenella [2]): 100% | response vs control in vivo at 60 ppm, 60 µg/mL (Eimeria tenella [2]): 95.8% | Score (bloody stool score) (Eimeria tenella [2]): 1 (bloody stool below 25%)

CCCn1cnc(C(N)=O)c1C(N)=O [IST15038, 1-propyl-1H-imidazole-4,5-dicarboxamide]
responders at 60 ppm, 60 µg/mL (Eimeria necatrix): 100% | response vs control in vivo at 60 ppm, 60 µg/mL (Eimeria necatrix): 79.5% | Score (bloody stool score) (Eimeria necatrix): 2 (25 to 50% of bloody stool) | responders at 60 ppm, 60 µg/mL (Eimeria acervulina): 100% | response vs control in vivo at 60 ppm, 60 µg/mL (Eimeria acervulina): 73.8% | Feed conversion ratio (Eimeria acervulina): 2.135 | responders at 60 ppm, 60 µg/mL (Eimeria tenella [2]): 100% | response vs control in vivo at 60 ppm, 60 µg/mL (Eimeria tenella [2]): 82.1% | Score (bloody stool score) (Eimeria tenella [2]): 3 (50 to 75% of bloody stool)

NC(=O)c1ncn(Cc2ccccc2F)c1C(N)=O [IST15043, 1-(2-fluorobenzyl)-1H-imidazole-4,5-dicarboxamide]
anticoccidial activity in view of survival rate, bloody stool score and relative weight gain (Eimeria necatrix): highest anticoccidial activities | responders at 60 ppm, 60 µg/mL (Eimeria necatrix): 100% | response vs control in vivo at 60 ppm, 60 µg/mL (Eimeria necatrix): 102% | Score (bloody stool score) (Eimeria necatrix): 0 | anticoccidial activity in view of survival rate, relative weight gain and feed conversion ratio (Eimeria acervulina): highest anticoccidial activities | responders at 60 ppm, 60 µg/mL (Eimeria acervulina): 100% | response vs control in vivo at 60 ppm, 60 µg/mL (Eimeria acervulina): 99.4% | Feed conversion ratio (Eimeria acervulina): 2.139 | anticoccidial activity in view of survival rate, bloody stool score and relative weight gain (Eimeria tenella [2]): highest anticoccidial activities | responders at 60 ppm, 60 µg/mL (Eimeria tenella [2]): 100% | response vs control in vivo at 60 ppm, 60 µg/mL (Eimeria tenella [2]): 98.7% | Score (bloody stool score) (Eimeria tenella [2]): 0

NC(=O)c1ncn(Cc2ccc([N+](=O)[O-])cc2)c1C(N)=O [IST15045, 1-(4-nitrobenzyl)-1H-imidazole-4,5-dicarboxamide]
anticoccidial activity in view of survival rate, bloody stool score and relative weight gain (Eimeria necatrix): highest anticoccidial activities | responders at 60 ppm, 60 µg/mL (Eimeria necatrix): 100% | response vs control in vivo at 60 ppm, 60 µg/mL (Eimeria necatrix): 102% | Score (bloody stool score) (Eimeria necatrix): 0 | anticoccidial activity in view of survival rate, relative weight gain and feed conversion ratio (Eimeria acervulina): highest anticoccidial activities | responders at 60 ppm, 60 µg/mL (Eimeria acervulina): 100% | response vs control in vivo at 60 ppm, 60 µg/mL (Eimeria acervulina): 98.7% | Feed conversion ratio (Eimeria acervulina): 2.158 | anticoccidial activity in view of survival rate, bloody stool score and relative weight gain (Eimeria tenella [2]): highest anticoccidial activities | responders at 60 ppm, 60 µg/mL (Eimeria tenella [2]): 100% | response vs control in vivo at 60 ppm, 60 µg/mL (Eimeria tenella [2]): 104% | Score (bloody stool score) (Eimeria tenella [2]): 0

NC(=O)c1ncn(Cc2ccc(C(F)(F)F)cc2)c1C(N)=O [IST15051, 1-(4-(trifluromethyl)benzyl)-1H-imidazole-4,5-dicarboxamide]
anticoccidial activity in view of survival rate, bloody stool score and relative weight gain (Eimeria necatrix): highest anticoccidial activities | responders at 60 ppm, 60 µg/mL (Eimeria necatrix): 100% | response vs control in vivo at 60 ppm, 60 µg/mL (Eimeria necatrix): 99.5% | Score (bloody stool score) (Eimeria necatrix): 0 | anticoccidial activity in view of survival rate, relative weight gain and feed conversion ratio (Eimeria acervulina): highest anticoccidial activities | responders at 60 ppm, 60 µg/mL (Eimeria acervulina): 100% | response vs control in vivo at 60 ppm, 60 µg/mL (Eimeria acervulina): 102% | Feed conversion ratio (Eimeria acervulina): 2.109 | Relative weight gain (%) (Eimeria tenella [1]; 5 ppm in feed): 80.4% | Survival rate (%) (Eimeria tenella [1]; 5 ppm in feed): 96% | Score (bloody stool score) (Eimeria tenella [1]; 5 ppm in feed): 4 (bloody stool over 75%) | Relative weight gain (%) (Eimeria tenella [1]; 10 ppm in feed): 88.6% | Survival rate (%) (Eimeria tenella [1]; 10 ppm in feed): 100% | Score (bloody stool score) (Eimeria tenella [1]; 10 ppm in feed): 2 (25 to 50% of bloody stool) | Relative weight gain (%) (Eimeria tenella [1]; 20 ppm in feed): 95.9% | Survival rate (%) (Eimeria tenella [1]; 20 ppm in feed): 100% | Score (bloody stool score) (Eimeria tenella [1]; 20 ppm in feed): 0 | Relative weight gain (%) (Eimeria tenella [1]; 50 ppm in feed): 98.7% | Survival rate (%) (Eimeria tenella [1]; 50 ppm in feed): 100% | Score (bloody stool score) (Eimeria tenella [1]; 50 ppm in feed): 0 | Relative weight gain (%) (Eimeria tenella [1]; 100 ppm in feed): 101.2% | Survival rate (%) (Eimeria tenella [1]; 100 ppm in feed): 100% | Score (bloody stool score) (Eimeria tenella [1]; 100 ppm in feed): 0 | Relative weight gain (%) (Eimeria tenella [1]; 200 ppm in feed): 99.4% | Survival rate (%) (Eimeria tenella [1]; 200 ppm in feed): 100% | Score (bloody stool score) (Eimeria tenella [1]; 200 ppm in feed): 0 | Relative weight gain (%) (Eimeria tenella [1]; 500 ppm in feed): 103.6% | Survival rate (%) (Eimeria tenella [1]; 500 ppm in feed): 100% | Score (bloody stool score) (Eimeria tenella [1]; 500 ppm in feed): 0 | anticoccidial activity in view of survival rate, bloody stool score and relative weight gain (Eimeria tenella [2]): highest anticoccidial activities | responders at 60 ppm, 60 µg/mL (Eimeria tenella [2]): 100% | response vs control in vivo at 60 ppm, 60 µg/mL (Eimeria tenella [2]): 101% | Score (bloody stool score) (Eimeria tenella [2]): 0

From patent publication US10435376B2, “Derivatives of 1H-imidazole-4,5-dicarboxamide and use thereof in preparation of anticoccidial drugs” (GUANGZHOU INSIGHTER BIOTECHNOLOGY CO., LTD., priority 2015, dated 2019)
